We go through eleven compounds from publication PMC6100633, “Design, Synthesis, and Evaluation of a New Series of Thiazole-Based Anticancer Agents as Potent Akt Inhibitors” (Molecules : A Journal of Synthetic Chemistry and Natural …, 2018).

For data set [1], the system named is A549 human lung adenocarcinoma cell line. In words: MTT assay, A549 cells. The class given is cell-based. The following applies: for IC50: Homo sapiens, A549, 24 h. Here is the method:
(§1) C6 Rat glioma and NIH/3T3 mouse embryonic fibroblast cells were incubated in Dulbecco’s Modified Eagle’s Medium (DMEM) (Sigma, Deisenhofen, Germany) supplemented with 10% fetal calf serum (Gibco, Paisley, UK). A549 Human lung adenocarcinoma cells were incubated in 90% RPMI supplemented with 10% fetal bovine serum (Gibco, Paisley, UK). All media were supplemented with 100 IU/mL penicillin-streptomycin (Gibco, Paisley, UK) and the cells were incubated at 37 °C in a humidified atmosphere of 95% air and 5% CO2. Exponentially growing cells were plated at 2 × 10^4 cells/mL into 96-well microtiter tissue culture plates (Nunc, Roskilde, Denmark) and incubated for 24 h before the addition of the drugs (the optimum cell number for cytotoxicity assays was determined in preliminary experiments). The stock solutions of the compounds were prepared in dimethyl sulfoxide (DMSO; Sigma Aldrich, Poole, UK) and further dilutions were made with fresh culture medium (the concentration of DMSO in the final culture medium was <0.1% which had no effect on the cell viability).
(§2) The level of cellular 3-(4,5-dimethylthiazol-2-yl)-2,5-diphenyltetrazolium bromide (MTT) (Sigma-Aldrich, St. Louis, MO, USA) reduction was quantified as previously described in the literature with small modifications. […] At the end of this period, MTT was added to a final concentration of 0.5 mg/mL and the cells were incubated for 4 h at 37 °C. After the medium was removed, the formazan crystals formed by MTT metabolism were solubilized by addition of 200 µL DMSO to each well and absorbance was read at 540 nm with a microtiter plate spectrophotometer (BioTek Plate Reader, Winooski, VT, USA). Every concentration was repeated in three wells.
In general terms: Formazan colour is commonly taken as a measure of viable cells.

For the next data set, the system named is C6 rat glioma cell line. Kind of data set: MTT assay, C6 cells. The following applies: for IC50: Rattus norvegicus, C6, 24 h. The class given is cell-based. Here is the method: as §1, §2
The test system of the next data set is A549 cells. In words: Annexin V FITC/PI flow cytometric analysis of apoptosis, A549 cells. The class given is cell-based, human. The following applies: 24 h, compounds at IC50 values. Here is the method:
(§3) Annexin V staining protocol was applied according to the manufacturer’s instructions (BD Pharmingen, San Jose, CA, USA). The cells were then briefly washed with cold phosphate buffer saline (PBS) and suspended in a binding buffer at a concentration of 1 × 10^6 cells/mL. Then, 100 µL of this solution containing 1 × 10^5 cells was transferred to a 5 mL test tube. After 5 µL of Annexin V and PI was added, the cells were incubated for 15 min at room temperature in the dark. Then 400 µL of 1× binding buffer was added to each tube and the cells were processed for data acquisition, and analyzed on a BD FACSAria flow cytometer using FACSDiva version 6.1.1 software (BD Biosciences, San Jose, CA, USA).

Data set [2] has as its system Akt. Kind of data set: In cell ELISA colorimetric Akt activity, A549 cells. The class given is cell-based, human. The following applies: compounds at IC50 concentrations for 24 h. Here is the method: (§4) Briefly, the media was removed and 100 µL of 4% formaldehyde was added to each well. The plate was incubated in a fume hood at room temperature for 15 min. Formaldehyde was removed and the plate was washed twice with 100 µL/well of 1× TBS. Then, 1× TBS was removed, 100 µL/well of 1× permeabilization buffer was added and incubated for 15 min at room temperature. The permeabilization buffer was removed and the plate was washed once with 100 µL/well of 1× TBS. Then, 1× TBS was removed, 100 µL/well quenching solution was added and incubated at room temperature for 20 min. Quenching solution was removed and the plate was washed once with 100 µL/well of 1× TBS. Then, 1× TBS was removed and 100 µL/well of blocking buffer was added and incubated at room temperature for 30 min. After the blocking buffer was removed, 50 µL/well of primary antibody was added. A plate sealer was applied and incubated overnight at 4 °C. The primary antibody solution was removed and the plate was washed three times with 100 µL/well of 1× wash Buffer. After the wash buffer was removed, 100 µL/well of diluted HRP conjugate was added and incubated for 30 min at room temperature. The wash buffer was removed and 100 µL/well of TMB substrate was added. The plate was then incubated at room temperature, protected from light. 100 µL/well of TMB stop solution was added and the absorbance was measured at 450 nm within 30 min of stopping the reaction. The experiment was performed in triplicate wells. The values of blank wells were subtracted from each well of treated and control cells. Percent Akt activity was defined as the relative absorbance of treated versus untreated control cells.
Background: ELISA stands for enzyme-linked immunosorbent assay.

The subject of data set [3] is Akt. In words: In cell ELISA colorimetric Akt activity, C6 cells. Conditions: compounds at IC50 concentrations for 24 h. The class given is cell-based, rat. Here is the method:
as §4

The test system of a further data set is C6 cells. In words: Annexin V FITC/PI flow cytometric analysis of apoptosis, C6 cells. The class given is cell-based, rat. The following applies: for early and late apoptotic cell population: C6 cell line, sum of early and late apoptotic cells; for Early Apoptotic Cells% / Late Apoptotic Cells% / Viable Cells%: C6 cells, 24 h, compounds at IC50 values. Here is the method:
as §3
For orientation: Flow cytometry measures light scatter and fluorescence of single cells or particles in a stream.

Data set [4] relates to NIH/3T3 mouse embryonic fibroblast cell line. In words: MTT assay, NIH/3T3 cells (healthy). The class given is cell-based. Conditions: NIH3T3, 24 h. Here is the method: as §1, with “viability). The level of cellular 3-(4,5-dimethylthiazol-2-yl)-2,5-diphenyltetrazolium bromide (MTT) (Sigma-Aldrich, St. Louis, MO, USA) reduction was quantified as previously described in the literature with small modifications. […] At the end of this period, MTT was added to a final concentration of 0.5 mg/mL and the cells were incubated for 4 h at 37 °C. After the medium was removed, the formazan crystals formed by MTT metabolism were solubilized by addition of 200 µL DMSO to each well and absorbance was read at 540 nm with a microtiter plate spectrophotometer (BioTek Plate Reader, Winooski, VT, USA). Every concentration was repeated in three wells.” for “viability).”

In brackets after ≈: the same amount, converted by molar mass.

Turning to `N.N.[Cl][Pt][Cl]` [Cisplatin, cisplatin, reference compound], in data set [1] (24 h), the “IC50 A549 Cell Line” value amounted to 17.33 ± 2.08 mg/L. Further, the “IC50 C6 Cell Line” value in the data set on C6 rat glioma cell line (24 h) is 12.67 ± 3.06 mg/L. In the data set on A549 cells, the “Early Apoptotic Cells%” value came out at 2.6% and the “Late Apoptotic Cells%” value was found to be 63.5%. For the same compound, in the data set with Akt [2], the “Akt Inhibition % A549 Cell Line” value was found to be 31.01 ± 3.18%. For the same compound, the “Akt Inhibition % C6 Cell Line” value in the data set on Akt [3] came out at 77.25 ± 5.75%. Besides, in the data set on C6 cells, the “early and late apoptotic cell population” value is 28.8%; the “Early Apoptotic Cells%” value worked out at 3.3%; the “Late Apoptotic Cells%” value amounted to 25.5%.

By IC50 is commonly meant the midpoint of a concentration-inhibition curve. A high value points to lower potency. As to `N#Cc1ccc(Oc2ccc(C=NNc3nc(-c4ccccc4)cs3)cc2)cc1` [Compound 1, 2-[2-((4-(4-Cyanophenoxy)phenyl)methylene)hydrazinyl]-4-phenylthiazole], the IC50 is 410 ± 14.1 mg/L (≈ 1030 µM) in data set [1], more than 500 mg/L in the data set with C6 rat glioma cell line and 197 ± 20.8 mg/L (≈ 496 µM) in data set [4].

The term melting point denotes the temperature of the solid-liquid transition. For `N#Cc1ccc(Oc2ccc(C=NNc3nc(-c4ccc([N+](=O)[O-])cc4)cs3)cc2)cc1` [Compound 2, 2-[2-((4-(4-Cyanophenoxy)phenyl)methylene)hydrazinyl]-4-(4-nitrophenyl)thiazole], the melting point lay in the range of 250 to 251 °C. The same compound registered an IC50 in data set [1] of 100 ± 20 mg/L (≈ 227 µM). The same compound registered an IC50 in the data set with C6 rat glioma cell line of more than 500 mg/L. In data set [4], this compound came in with an IC50 of 71.7 ± 24.7 mg/L (≈ 162 µM).

The compound `N#Cc1ccc(Oc2ccc(C=NNc3nc(-c4ccc(F)cc4)cs3)cc2)cc1` [Compound 3, 2-[2-((4-(4-Cyanophenoxy)phenyl)methylene)hydrazinyl]-4-(4-fluorophenyl)thiazole] yielded a melting point of 204 to 205 °C. Besides, the IC50 in data set [1] amounted to 193 ± 15.3 mg/L (≈ 466 µM). In addition, the IC50 in the data set with C6 rat glioma cell line is more than 500 mg/L. The midpoint of inhibition in data set [4], the IC50, lay at 170 ± 36.1 mg/L (≈ 410 µM).

On to `N#Cc1ccc(Oc2ccc(C=NNc3nc(-c4ccc(Cl)cc4)cs3)cc2)cc1` [Compound 4, 2-[2-((4-(4-Cyanophenoxy)phenyl)methylene)hydrazinyl]-4-(4-chlorophenyl)thiazole], for which the melting point lay in the range of 227 to 228 °C. In addition, 207 ± 23.1 mg/L (≈ 480 µM) corresponded to half-maximal inhibition in data set [1] (IC50). Besides, in the data set on C6 rat glioma cell line, the IC50 was more than 500 mg/L. In data set [4], the IC50 is 180 ± 10 mg/L (≈ 418 µM).

Turning to `N#Cc1ccc(Oc2ccc(C=NNc3nc(-c4ccc(Br)cc4)cs3)cc2)cc1` [Compound 5, 2-[2-((4-(4-Cyanophenoxy)phenyl)methylene)hydrazinyl]-4-(4-bromophenyl)thiazole], the melting point lay within 217 to 218 °C. The compound also displayed a half-inhibitory concentration (IC50) in data set [1] of 198 ± 10.4 mg/L (≈ 417 µM). Besides, the concentration for half-maximal inhibition (IC50) in the data set with C6 rat glioma cell line is more than 500 mg/L. This compound also yielded an IC50 in data set [4] of 163 ± 5.77 mg/L (≈ 344 µM).

The compound `N#Cc1ccc(Oc2ccc(C=NNc3nc(-c4ccc(C#N)cc4)cs3)cc2)cc1` [Compound 6, 2-[2-((4-(4-Cyanophenoxy)phenyl)methylene)hydrazinyl]-4-(4-cyanophenyl)thiazole] showed a melting point of 232 to 233 °C. The same compound came in with an IC50 in data set [1] of 12 ± 1.73 mg/L (≈ 28.5 µM). For the same compound, the midpoint of inhibition in the data set on C6 rat glioma cell line, the IC50, lay at 3.83 ± 0.76 mg/L (≈ 9.09 µM). Besides, in the data set on A549 cells, the “Early Apoptotic Cells%” value came out at 2.3%, the “Late Apoptotic Cells%” value worked out at 36.5% and the “Viable Cells%” value is on record as 14.4%. Moreover, the “Akt Inhibition % A549 Cell Line” value in the data set on Akt [2] turned out to be 45.77 ± 10.58%. Besides, the “Akt Inhibition % C6 Cell Line” value in the data set with Akt [3] worked out at 71.66 ± 4.09%. In the data set on C6 cells, the “early and late apoptotic cell population” value is on record as 32.8%; the “Early Apoptotic Cells%” value is given as 4.6%; the “Late Apoptotic Cells%” value turned out to be 28.2%; the “Viable Cells%” value was 42.2%. For the same compound, the IC50 in data set [4] was more than 500 mg/L.

Compound `Cc1ccc(-c2csc(NN=Cc3ccc(Oc4ccc(C#N)cc4)cc3)n2)cc1` [Compound 7, 2-[2-((4-(4-Cyanophenoxy)phenyl)methylene)hydrazinyl]-4-(4-methylphenyl)thiazole] had a melting point of 228 to 229 °C. The compound further showed a half-maximal inhibitory concentration (IC50) in data set [1] of 270 ± 95.4 mg/L (≈ 658 µM). In the data set on C6 rat glioma cell line, it took 16 ± 5.66 mg/L (≈ 39 µM) to reach half-maximal inhibition (IC50). For the same compound, in the data set with Akt [3], the “Akt Inhibition % C6 Cell Line” value is 70.42 ± 10.37%. In addition, in the data set on C6 cells, the “Early Apoptotic Cells%” value was found to be 3.2%, the “Late Apoptotic Cells%” value turned out to be 14.3% and the “Viable Cells%” value came out at 69.2%. The compound also showed an IC50 in data set [4] of 185 ± 5 mg/L (≈ 451 µM).

For the compound `N#Cc1ccc(Oc2ccc(C=NNc3nc(-c4ccc(O)cc4)cs3)cc2)cc1` [Compound 8, 2-[2-((4-(4-Cyanophenoxy)phenyl)methylene)hydrazinyl]-4-(4-hydroxyphenyl)thiazole], the melting point was in the range of 249 to 250 °C. Moreover, in data set [1], the IC50 amounted to 107 ± 5.77 mg/L (≈ 259 µM). Besides, half-maximal inhibition with C6 rat glioma cell line (IC50) was put at 5.83 ± 0.76 mg/L (≈ 14.1 µM). For the same compound, in the data set with A549 cells, the “Early Apoptotic Cells%” value is 2.1%, the “Late Apoptotic Cells%” value stood at 38.7% and the “Viable Cells%” value came out at 18.5%. Further, in the data set with Akt [2], the “Akt Inhibition % A549 Cell Line” value turned out to be 57.37 ± 17.30%. Also, in the data set on Akt [3], the “Akt Inhibition % C6 Cell Line” value came to 24.99 ± 0.52%. Moreover, in the data set with C6 cells, the “Early Apoptotic Cells%” value is listed as 1.9%, the “Late Apoptotic Cells%” value is given as 23.8% and the “Viable Cells%” value came to 49.7%. Half-maximal inhibition in data set [4] (IC50) was put at 227 ± 11.6 mg/L (≈ 550 µM).

`COc1ccc(-c2csc(NN=Cc3ccc(Oc4ccc(C#N)cc4)cc3)n2)cc1` [Compound 9, 2-[2-((4-(4-Cyanophenoxy)phenyl)methylene)hydrazinyl]-4-(4-methoxyphenyl)thiazole] came in with a melting point of 210 to 211 °C. The IC50 in data set [1] was found to be 233 ± 57.7 mg/L (≈ 547 µM). The IC50 with C6 rat glioma cell line is more than 500 mg/L. Also, in data set [4], the midpoint of inhibition, the IC50, lay at 433 ± 28.9 mg/L (≈ 1020 µM).

The compound `N#Cc1ccc(Oc2ccc(C=NNc3nc(-c4ccc5ccccc5c4)cs3)cc2)cc1` [Compound 10, 2-[2-((4-(4-Cyanophenoxy)phenyl)methylene)hydrazinyl]-4-(naphthalen-2-yl)thiazole] gave a melting point of 204 to 205 °C. Also, the IC50 in data set [1] was more than 500 mg/L. This compound gave an IC50 in the data set on C6 rat glioma cell line of more than 500 mg/L. Also, the IC50 in data set [4] is more than 500 mg/L.
